Values quoted from earlier work, collected in patent US20100172981A1, “Ibuprofen-Effervescent Preparation Having a High Dissolution Rate and Method for the Production thereof” (Losan Pharma GMBH, priority 2006, published 2010).

Details: general statement in the background section

- solubility / dissolution in water (words, background): dissolves only slowly in water
Structure (SMILES): CC(C)Cc1ccc(C(C)C(=O)O)cc1.[Na] (stereo not shown) [ibuprofen-sodium]
